Entries after “also recorded” stand apart in the source; their conditions may differ. Values belong to the compound of their own block, whether it stands above or below them.
Legend:
[1] = tested on: BMDM; assay: qPCR for pro-inflammatory cytokine expression in LPS-treated BMDM; type: cell-based, mouse; conditions: 100 ng/mL LPS + 5 μM 4μ8C, 6 hours
Method: (§1) cDNA synthesis and quantitative RT-PCR. Total RNA was extracted using an ISOLATE II RNA (Bioline, 52073) and cDNA synthesis was performed with the ISCRIPT™ kit (Bio-Rad, 170-8891). TaqMan Probes were obtained from Life Technologies (GAPDH: Mm99999915_g1; IL-6: Mm00446190_m1; pro-IL-1β: Mm00434228_m1; TNFα: Mm00443258_m1). Primers for IRE1 detection were GCACGUGAAUUGAUAGAGA (SEQ ID NO: 10) and UCUCUAUCAAUUCACGUGC (SEQ ID NO: 11). Primers for the detection of XBP1 were previously published (Lipson et al., 2008). RT-PCR was performed as described previously (Gaultier et al., 2009).
(§2) cDNA synthesis and quantitative PCR. Total RNA was extracted using an ISOLATE II RNA kit (Bioline, 52073) and cDNA synthesis was performed with the SENSIFAST™ cDNA synthesis kit (Bioline, BIO-65054). TaqMan Probes were obtained from Thermo Fisher (GAPDH: Mm99999915_g1; IL-6: Mm00446190_m1; pro-IL-1β: Mm00434228_m1; IL10: Mm004396). Primers for the detection of XBP1, IL-8, and actin were previously published (Vandesompele et al., 2002; Kumar & Valdivia, 2008; Girard et al., 2009). qPCR was performed as described previously (Gaultier et al., 2008).

[2] = tested on: IRE1 transcript; assay: qPCR for IRE1 expression in BMDM; type: cell-based, mouse; conditions: S1R KO BMDM, 5 μM 4μ8C
Method: as §1

[3] = biological target: T1, IRE1 endonuclease activity (Mus musculus, UniProt Q9EQY0); assay: XBP1 splicing ratio by qPCR in BMDM; type: cell-based; conditions: WT and S1R KO BMDM, 100 ng/mL LPS + 5 μM 4μ8C, 6 hours
T1 construct: We prepared bone marrow derived macrophages (BMDM) from WT and S1R KO mice; endogenous in cells; host or cells: primary mouse bone marrow derived macrophages (WT and S1R KO, C57BL/6J background)
Method: (§3) Tissue culture conditions and Reagents. HEK293 cells, primary lung fibroblasts and BMDM were isolated and maintained as described (41-43). Cells were treated with LPS (Sigma, L4391), 4μ8C (Tocris, 4479), tunicamycin (Tocris, 3516), PD98059 (Medchem Express HY-12028), JSH-23 (Medchem Express, Hy-13982), SP600125 (Medchem Express, HY-12041), cycloheximide (Tocris, 0970), lactacystin (Cayman Chemical, 70980), chloroquine (Fisher, ICN19391925), and STF 083010 (Medchem Express, HY-15845) as described in the text.
as §1, §2

[4] = cited from earlier work
[5] = tested on: primary lung fibroblasts; assay: IL-6 ELISA on supernatant of LPS-stimulated primary lung fibroblasts; type: cell-based, mouse; conditions: 1 μg/mL LPS + 5 μM 4μ8C, 6 hours
Method: as §3
(§4) ELISA. ELISA for IL-6 and TNFα were performed as previously described (Remick et al., 2002). Antibodies used were: anti-mouse IL-6 MP5-20F3 (Biolegend, 504501) 0.5 μg/mL; biotin anti-mouse IL-6 MP5-32C11 (Biolegend, 504601) 1 μg/mL; anti-mouse TNFα (R&D systems, AF-410-NA) 0.5 μg/mL; biotin anti-mouse TNFα (R&D systems, BAF410) 0.25 μg/mL.
Tissue culture conditions and Reagents. HEK293 mTLR4/MD2/CD14 (Invivogen, 293-mtlr4md2cd14), primary lung fibroblasts, and BMDM were isolated and maintained as described (Zhang et al., 2008; Seluanov et al., 2010). […]

[6] = tested on: BMDM; assay: IL-6 ELISA on supernatant of LPS-stimulated BMDM; type: cell-based, mouse; conditions: 1 μg/mL LPS, 6 hours; 20 μM JSH-23, 20 μM PD98059, 1 μM SP600125, 5 μM 4μ8C
Method: as §3, §4
Tissue culture conditions and Reagents. HEK293 mTLR4/MD2/CD14 (Invivogen, 293-mtlr4md2cd14), primary lung fibroblasts, and BMDM were isolated and maintained as described (Zhang et al., 2008; Seluanov et al., 2010). Cells and animals were treated with LPS (Sigma, L4391), 4μ8C (Tocris, 4479), APY-29 (Medchem Express HY-17537), PD98059 (Medchem Express HY-12028), JSH-23 (Medchem Express, HY-13982), SP600125 (Medchem Express, HY-12041), STF 083010 (Medchem Express, HY-15845), Fluvoxamine (Medchem Express, HY-B0103A), and Ceftriaxone (Hospira, NDC: 0409-7337-01), as described in the text.
as §4, with “TNF-α” for “TNFα”

[7] = pre-clinical tests; cited from earlier work
[8] = tested on: transgenic (3×Tg-AD) mice; conditions: cited from earlier work

T1 sequence (Q9EQY0 21-977): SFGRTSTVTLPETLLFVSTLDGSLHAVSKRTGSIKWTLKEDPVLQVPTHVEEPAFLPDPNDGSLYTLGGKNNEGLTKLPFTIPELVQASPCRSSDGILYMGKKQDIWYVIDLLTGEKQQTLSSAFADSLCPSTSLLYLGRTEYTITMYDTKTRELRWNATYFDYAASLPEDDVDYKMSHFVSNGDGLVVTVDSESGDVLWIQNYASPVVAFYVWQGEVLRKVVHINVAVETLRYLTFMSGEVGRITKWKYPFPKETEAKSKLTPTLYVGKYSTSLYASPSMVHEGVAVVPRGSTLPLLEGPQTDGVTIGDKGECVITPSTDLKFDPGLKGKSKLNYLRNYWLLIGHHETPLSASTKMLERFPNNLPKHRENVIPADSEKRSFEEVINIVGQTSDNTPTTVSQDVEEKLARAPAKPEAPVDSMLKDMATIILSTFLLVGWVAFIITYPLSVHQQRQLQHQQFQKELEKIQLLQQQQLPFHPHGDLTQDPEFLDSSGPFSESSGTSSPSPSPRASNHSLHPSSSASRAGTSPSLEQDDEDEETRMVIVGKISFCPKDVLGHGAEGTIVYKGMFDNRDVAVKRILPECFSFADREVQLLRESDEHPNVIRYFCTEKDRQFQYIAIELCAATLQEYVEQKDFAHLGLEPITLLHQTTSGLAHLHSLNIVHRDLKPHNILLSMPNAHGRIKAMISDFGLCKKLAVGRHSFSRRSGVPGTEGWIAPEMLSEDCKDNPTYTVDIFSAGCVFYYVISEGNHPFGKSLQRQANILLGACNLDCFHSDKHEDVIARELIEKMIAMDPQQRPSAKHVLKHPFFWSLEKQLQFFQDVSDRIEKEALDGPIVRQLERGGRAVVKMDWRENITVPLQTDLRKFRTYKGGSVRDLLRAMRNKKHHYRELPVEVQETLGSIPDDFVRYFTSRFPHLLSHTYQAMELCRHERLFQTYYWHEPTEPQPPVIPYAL

- LPS induced XBP1 splicing [3]: completely abolished
Structure (SMILES): Cc1cc(=O)oc2c(C=O)c(O)ccc12 [4μ8C, 7-Hydroxy-4-methyl-2-oxo-2H-1-benzopyran-8-carboxaldehyde]
- Potentiated cytokine expression in S1R KO BMDM relative to WT (qPCR) [1]: inhibits potentiation of cytokine expression in S1R KO BMDM; also recorded: reversed IL-6 expression in KO cells to the amount observed in WT BMDM
- IL-1β expression (qPCR) ([1]; WT and S1R KO BMDM): decreases
- IL-6 expression (qPCR) ([1]; WT and S1R KO BMDM): decreases
- IRE1 transcript levels [2]: restores IRE1 transcript levels to those observed in WT BMDM
- Half-life in vivo [4]: short half-life
- IL-6 / cytokine secretion by lung fibroblasts upon LPS stimulation [5]: marked decrease of cytokine secretion
- Difference in LPS-induced IL-6 secretion between WT and S1R KO BMDM [6]: rescued IL-6 secretion in S1R KO cells to the levels observed in control BMDM

Structure (SMILES): CN(C)CC1COC(c2ccccc2)(c2ccccc2)C1.Cl (stereo not shown) [ANAVEX® 1-41, tetrahydro-N,N-dimethyl-5,5-di phenyl-3-furanmethanamine hydrochloride]
- Neuroprotective benefits [7]: significant neuroprotective benefits

Structure (SMILES): CC1SC2(CCN(C)CC2)CN1C(=O)CCc1c[nH]c2ccccc12 (stereo not shown) [ANAVEX® 3-71, 1-(2,8-dimethyl-1-thia-3,8-diazaspiro(4.5)dec-3-yl)-3-(1H-indol-3-yl)propan-1-one]
- Effect on major Alzheimer's hallmarks (cognitive deficits, amyloid and tau pathologies) [8]: highly effective in very small doses
